Here are results for three molecules from US12612411B1, “Imidazopyrazine derivatives, process for preparation thereof, and their uses as luciferins” (INSTITUT PASTEUR, priority 2017, dated 2026).

The nature of data set [1]: Acidic hydrolysis of imidazo[1,2-a]pyrazin-3-yl acetate into the luciferin, LC/MS monitoring. The class given is physicochemical. The note with it: DMSO / acidic ethanol (HCl), 50° C. On the procedure:
FIG. 1 illustrates the HPLC profiles over time for the acetyl hydrolysis of P-21 (M=451) into the corresponding luciferin Q-12 (M=409). Obtained on an Agilent apparatus, with a 3.5 μm XDB-C18 column and a water/methanol gradient (containing 5 mM ammonium formate, from 95-5 to 5-95 in 3.5 min, 3.5 min at 5-95, and then back at 95-5 in 0.5 min), UV monitoring set at […].
General protocol for the generation of solutions of imidazo[1,2-a]pyrazin-3(7H)-one Q by acidic hydrolysis of imidazo[1,2-a]pyrazin-3-yl acetate derivatives P. The considered acetate P (1 mg) was dissolved in DMSO (0.2 mL) and then diluted by adding a solution of acidic ethanol (0.3 ml) made from the addition of 37% hydrochloric acid (100 μl) on 100% ethanol (12 mL). This 0.5 mL solution was incubated at 50° C. for 2 hours to give a stock solution which was then stored at −80° C. […] Nota: these conditions are only adapted to the hydrolysis of the protecting group (as defined above) of the oxygen on position 2 of the imidazo[1,2-a]pyrazine ring system and not to the hydrolysis of any additional acetyl groups eventually present elsewhere on the substrate of this reaction.

For another data set, the target named is T1, nanoKAZ luciferase (Oplophorus gracilirostris, UniProt Q9GV45, A31E/A60N/A81I/F95D/I117V/K70R/L54V/L99Q/M102K/N193R/P142E/Q151K/Q38R/Q45L/V71I/Y165I).
T1 construct: luciferase catalytic domain (nanoKAZ, 19 kDa) from the Oplophorus-derived luciferase; host or cells: cell-free: 1-Step Human Coupled IVT Kit, pT7CFE1-based vector
In words: In vitro bioluminescence screening of imidazo[1,2-a]pyrazin-3(7H)-ones with nanoKAZ expressed in vitro (96-well luminometer, 2 h kinetic). The class given is biochemical. As to conditions: furimazine = 1. Put shortly:
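nanoKAZ made by human coupled IVT, diluted 400-fold then 1/20 in DPBS + 0.1% Tween 20; luciferins generated in situ by acid hydrolysis of O-acetyl precursors (DMSO/acidic ethanol, 50 °C, 2 h). Luminescence followed kinetically for 2 h; max intensity, signal half-life and 10-min and 2-h AUC normalized to furimazine.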

Data set [2] has as its target T2, nanoKAZ (Oplophorus gracilirostris, UniProt Q9GV45, A31E/A60N/A81I/F95D/I117V/K70R/L54V/L99Q/M102K/N193R/P142E/Q151K/Q38R/Q45L/V71I/Y165I).
T2 construct: luciferase catalytic domain (nanoKAZ, 19 kDa) from the Oplophorus-derived luciferase
Put plainly: Michaelis-Menten parameters of nanoKAZ from Lineweaver-Burk representation. As to conditions: for Vmax: extrapolated from Lineweaver-Burk, constant enzyme concentration. The class given is biochemical. The text has this: The two dotted lines (linear regression) are converging to the same intercept with the x-axis (−1/Km) and different intercepts with the y-axis (1/Vmax). The equations of the two linear regressions are indicated and the corresponding correlation factors (R^2) with the experimental data are reported.
Considering the hypothesis of a Michaelis-Menten mechanism for the nanoKAZ, the Km and Vmax were extrapolated from the Lineweaver-Burk representation of the enzyme activity catalyzing either Q-1 or Q-3. […] The data have been fitted with linear regression with satisfying high correlation factors (R). The Km are the same for both substrates (Km=2 μM) whereas the Vmax is 3-times lower for Q-1 (0.6·10^6 RLU/sec) than for Q-3 (2.0·10^6 RLU/sec).

The conditions of data set [3]: cited from earlier work.
Data set [4] concerns protein chimeras fused to the nanoKAZ in transiently transfected HEK and Jurkat cell lines, and primary human T-cells. Put plainly: In cellulo bioluminescence imaging with a light microscope. In kind it is cell-based. The text has this: FIG. 5 compares expression and location of protein chimeras fused to the nanoKAZ in transiently transfected HEK and Jurkat cell lines, and primary human T-cells: the cytokine receptor IL7Rα:nanoKAZ at the membrane (top), the enconsin tubulin binding protein EMTB:nanoKAZ associated with microtubules (middle), the transcription factor STAT5a:nanoKAZ dense throughout the cytoplasm and faint in the nucleus (bottom).
The acquisition of bioluminescence using a light microscope provides a quantitative measurement of light emission cell by cell, the main advantage. This is meaningful especially when the transfection efficiency is low in the case of nanoKAZ expression provided by plasmids. […] The higher is the bioluminescence efficiency, the lower is the exposure time and the lower is the sensitivity required for the detector or camera. NanoKAZ with developed substrates such as Q-3 or Q-12 opens the bioluminescence imaging to standard light microscope. The lower the exposure time, the higher the resolution, which is impeded by the motion of living cells. Any gain in light emission enhances the quality of images. Luciferase reporters or fragments can be fused to proteins targeting the cell surface, cytoplasm, organelles, nucleus or exosomes and can be carried by virus, host-infecting cells or agents, biologic complexes, beads or any particles. […]

For data set [5], the target named is T2, nanoKAZ. In words: Bioluminescence emission spectra. In kind it is biochemical. The text has this:
(§1) Furimazine (Q-1) and derivatives have emission spectra centred on 460 nm but present large peaks bleeding beyond 580 nm. The bioluminescence obtained with the analogue Q-3 provides photons with 10% of them having a wavelength beyond 560 nm up to 600 nm. This wide spectra emission toward red is thus allowing the use of the nanok AZ/furimazine for in vivo imaging. The light emission beyond 580 is thousands times higher than red emitting firefly or beetle luciferases. IL7:nanoKAZ and analogue Q-3 were injected in mice.

Data set [6] has as its target T2, nanoKAZ. In words: Dynamic range of nanoKAZ bioluminescence versus serial enzyme dilutions. The class given is biochemical. As to conditions: constant volume 100 μL, constant substrate concentration. As for the experimental part: FIG. 3 illustrates dynamic range (relative units (RLU) versus serial dilutions) of nanok AZ, which was plotted using the imidazo[1,2-a]pyrazin-3(7H)-one Q-3.
As depicted in FIG. 3, the dynamic range of nanoKAZ was assessed using luciferin Q-3. The enzyme was diluted three by three times and the bioluminescence has been measured on a constant volume (100 (L) and at constant concentration of the substrate. The bioluminescence is linear with the enzyme concentration over 5 orders of magnitude, overwhelming the detection system. This range can be increase by two orders of magnitude by decreasing 2 times the volume for high enzyme concentration and by increasing two times the volume for low enzyme concentration.

The subject of a further data set is IL7:nanoKAZ. Put plainly: In vivo bioluminescence imaging (Ivis) after injection of IL7:nanoKAZ and substrate. The note with it: IL7:nanoKAZ and substrate injected in mice.
From the text: as §1

T1 sequence (Q9GV45 other isoform, or with tags, fused parts or gaps with the stated changes): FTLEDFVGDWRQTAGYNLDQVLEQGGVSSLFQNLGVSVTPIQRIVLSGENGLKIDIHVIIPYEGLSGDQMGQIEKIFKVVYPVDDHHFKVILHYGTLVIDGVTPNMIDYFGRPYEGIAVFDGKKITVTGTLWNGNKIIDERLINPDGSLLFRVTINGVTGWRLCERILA
T2 sequence (Q9GV45 other isoform, or with tags, fused parts or gaps with the stated changes): as above

Turning to `CCc1ccc(Cc2nc3c(Cc4ccccc4)nc(-c4ccccc4)cn3c2OC(C)=O)o1` [P-21, 8-Benzyl-2-((5-ethylfuran-2-yl)methyl)-6-phenylimidazo[1,2-a]pyrazin-3-yl acetate], the “time to complete hydrolysis into the luciferin Q-12” value in data set [1] is “complete reaction in less than two hours”.
Turning to `O=c1c(Cc2ccco2)nc2c(Cc3ccccc3)[nH]c(-c3ccccc3)cn1-2` [Q-1, 8-benzyl-2-(furan-2-ylmethyl)-6-phenylimidazo[1,2-a]pyrazin-3(7H)-one, reference compound], on nanoKAZ luciferase (Table 1), the “V1: maximum intensity, normalized using furimazine (Q-1) as a reference” value (“V1: maximum intensity, normalized” below) turned out to be 1; the “V3: area under the curve for ten minutes, normalized using furimazine (Q-1) as a reference” value is 1; the “V4: area under the curve for two hours, normalized using furimazine (Q-1) as a reference” value turned out to be 1. In addition, at nanoKAZ luciferase (second table), the “V3: area under the curve for 2 hours, normalized using furimazine (Q-1) as a reference” value was found to be 1 and the “V4: area under the curve for ten minutes, normalized using furimazine (Q-1) as a reference” value turned out to be 1. The “V1: maximum intensity, normalized” value at nanoKAZ luciferase (second table, luciferins made in situ from O-protected P) is given as 1. Also, the “Vmax, times lower than for Q-3” value at nanoKAZ [2] (Q-1 versus Q-3) came to 3 times. In addition, the Vmax at nanoKAZ [2] is listed as 0.6·10^6 RLU/sec. Moreover, the storage stability entry in data set [3] (commercially available luciferins) is “very weak storage stability”. For the same molecule, the “permitted storage time at 4° C.” value in data set [3] (recommended storage conditions) is recorded as “up to two weeks only”. Besides, the “extension of experience times to get the same quality as with nanoKAZ/analogue Q-3” value in data set [4] (nanoKAZ/furimazine versus nanoKAZ/Q-3) was found to be 3 folds. The emission spectra centre on nanoKAZ [5] worked out at 460 nm.
Regarding `Cc1ccc(Cc2nc3c(Cc4ccccc4)[nH]c(-c4ccccc4)cn-3c2=O)o1` [Q-3, 8-benzyl-2-((5-methylfuran-2-yl)methyl)-6-phenylimidazo[1,2-a]pyrazin-3(7H)-one], on nanoKAZ luciferase (Table 1), the “V1: maximum intensity, normalized” value was 2.7; the “V3: area under the curve for ten minutes, normalized using furimazine (Q-1) as a reference” value stood at 2.39; the “V4: area under the curve for two hours, normalized using furimazine (Q-1) as a reference” value was 1.3. Further, the Vmax on nanoKAZ [2] is 2.0·10^6 RLU/sec. Further, the “light emission in live-cell images compared with Q-1” value in data set [4] (images acquired for one second from live cells, FIG. 5) is “gain of light emission”. The “photons having a wavelength beyond 560 nm up to 600 nm” value on nanoKAZ [5] stood at 10%. Further, the “range over which bioluminescence is linear with the enzyme concentration” value on nanoKAZ [6] is 5 orders of magnitude. In the data set with IL7:nanoKAZ, the “in vivo bioluminescence image quality” value is “Quantitative images of high quality were acquired”.
